From patent US7517998B2, “Non nucleoside reverse transcriptase inhibitors” (priority 2004, dated 2009)
pIC50: −log10 of the molar value.

Target: T1, K103NNY181C mutant reverse transcriptase (Human immunodeficiency virus type 1 group M subtype B, UniProt P04585, K690N/Y768C)
T1 construct: mutations that occur in the reverse transcriptase segment of the pol gene
Experiment: Reverse transcriptase enzymatic assay (PicoGreen), K103N/Y181C mutant RT
Format: biochemical, HIV-1
Conditions: enzymatic assay of Example 24; for pIC50: IC50 mut; for IC50: IC50 mut (nM), mutant (K103N/Y181C) reverse transcriptase
Summary of the method: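 PicoGreen fluorescence (ex 485, em 520 nm) quantified product after EDTA stop. Reaction ran 50 min at 37 °C in pH 7.8 Tris/HCl buffer, 1% DMSO, with poly rC/dG15 template-primer (45/4.5 nM), 3.6 μM dGTP, 2.5 nM enzyme; inhibitor 10 μM–0.508 nM final after 15 min room-temperature pre-incubation.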

[1] = K103N/Y181C mutant reverse transcriptase

## CC(C)(C)c1ccc(-n2nnnc2SCC(=O)Nc2ccc(C(=O)NCCc3ccncc3)cc2Cl)c(Cl)c1 [Compound 6023]
Mutant reverse transcriptase
  pIC50: 7.66

## CC(CC(=O)O)NC(=O)COc1ccc(NC(=O)CSc2nnnn2-c2ccc(C(C)(C)C)cc2Cl)c(Cl)c1 (stereo not shown) [Compound 5014]
Mutant reverse transcriptase
  pIC50: 6.84

## Cc1ccc(-n2nnnc2SCC(=O)Nc2ccc(-c3cscn3)cc2Cl)c(Cl)c1 [Compound 3014]
Mutant reverse transcriptase
  pIC50: 6.85

## CN(C)CC(=O)NC(C)(C)C#Cc1ccc(NC(=O)CSc2nnnn2-c2ccc(C3CC3)cc2Cl)c(Cl)c1 [Compound 4087]
[1]
  pIC50: 7.67

## CC(C)(C#Cc1ccc(NC(=O)CSc2nnnn2-c2ccc(C(C)(C)C)cc2Cl)c(Cl)c1)OCC(=O)Nc1ccc(C(=O)O)cc1 [Compound 4045]
[1]
  pIC50: 7.49

## COC(=O)c1ccc(-c2ccc(NC(=O)CSc3nnnn3-c3ccc(C)cc3Cl)c(Cl)c2)cc1 [Compound 2001]
Mutant reverse transcriptase
  pIC50: 6.88

## COc1cccc(CC(=O)Nc2ccc(NC(=O)CSc3nnnn3-c3ccc(C(C)(C)C)cc3Cl)c(Cl)c2)c1 [Compound 7016]
  IC50: 145 nM

## CC(C)(C#Cc1ccc(NC(=O)CSc2nnnn2-c2ccc(C(C)(C)C)cc2Cl)c(Cl)c1)COC(N)=O [Compound 4033]
[1]
  pIC50: 7.44

## CN(C)CCCC(=O)NC(C)(C)C#Cc1ccc(NC(=O)CSc2nnnn2-c2ccc(C3CC3)cc2Cl)c(Cl)c1 [Compound 4108]
[1]
  pIC50: 7.57

## CC(C)(C)c1ccc(-n2nnnc2SCC(=O)Nc2ccc(OCC(=O)NC(CO)C(=O)O)cc2Cl)c(Cl)c1 (stereo not shown) [Compound 5018]
Mutant reverse transcriptase
  pIC50: 7.04

## Cc1ccc(-n2nnnc2SCC(=O)Nc2ccc(-c3c[nH]cn3)cc2Cl)c(Cl)c1 [Compound 3018]
Mutant reverse transcriptase
  pIC50: 6.57

## CC(C)(C#Cc1ccc(NC(=O)CSc2nnnn2-c2ccc(CC3CC3)cc2Cl)c(Cl)c1)C(=O)O [Compound 4240]
[1]
  pIC50: 6.76

## Cc1cc(OCC(=O)O)ccc1-c1ccc(NC(=O)CSc2nnnn2-c2ccc(C(C)(C)C)cc2Cl)c(Cl)c1 [Compound 3011]
Mutant reverse transcriptase
  pIC50: 6.47

## CC(C)(C#Cc1ccc(NC(=O)CSc2nnnn2-c2ccc(C3CC3)cc2Cl)c(Cl)c1)C(=O)NCc1cc[n+]([O-])cc1 [Compound 4148]
[1]
  pIC50: 7.96

## CC(C)(C#Cc1ccc(NC(=O)CSc2nnnn2-c2ccc(C3CC3)cc2Cl)c(Cl)c1)NCc1nccs1 [Compound 4129]
[1]
  pIC50: 7.81

## CC(C)(C)c1ccc(-n2nnnc2SCC(=O)Nc2ccc(NC(=O)C3CCCCC3)cc2Cl)c(Cl)c1 [Compound 7022]
  IC50: 629 nM

## CC(C)(C)c1ccc(-n2nnnc2SCC(=O)Nc2ccc(NC(=O)Cc3cccnc3)cc2Cl)c(Cl)c1 [Compound 7031]
  IC50: 43 nM

## CC(C)(C#Cc1ccc(NC(=O)CSc2nnnn2-c2ccc(C3CC3)cc2Cl)c(Cl)c1)OCCN1CCC(O)CC1 [Compound 4104]
[1]
  pIC50: 7.19

## O=C(CSc1nnnn1-c1ccc(C2CC2)cc1Cl)Nc1ccc(C(=O)NCc2ccc[n+]([O-])c2)cc1Cl [Compound 6039]
Mutant reverse transcriptase
  pIC50: 6.98

## Cc1ccc(-c2ncsc2SCC(=O)Nc2ccc(-c3ccc(CC(=O)O)cc3)cc2Cl)c(Cl)c1 [Compound 1002]
Mutant reverse transcriptase
  pIC50: 6.10

## CN(C)CCCNC(=O)C(C)(C)C#Cc1ccc(NC(=O)CSc2nnnn2-c2ccc(CC3CC3)cc2Cl)c(Cl)c1 [Compound 4245]
[1]
  pIC50: 6.34

## Cc1ccc(-c2nnsc2SCC(=O)Nc2ccc(-c3ccc(CC(=O)O)cc3)cc2Cl)c(Cl)c1 [Compound 1007]
Mutant reverse transcriptase
  pIC50: 6.97

## Cc1ccc(-n2nnnc2SCC(=O)Nc2ccc(-c3cccc(C(=O)O)c3)cc2Cl)c(Cl)c1 [Compound 3003]
Mutant reverse transcriptase
  pIC50: 6.62

## CC(C)(N)C#Cc1ccc(NC(=O)CSc2nnnn2-c2cc(C(F)(F)F)cc(C3CC3)c2Cl)c(Cl)c1F [Compound 4237]
[1]
  pIC50: 7.04

## CC(C)(C#Cc1ccc(NC(=O)CSc2nnnn2-c2ccc(C3CC3)cc2Cl)c(Cl)c1)OCCNC1CC1 [Compound 4117]
[1]
  pIC50: 7.28

## CC(C)(C#Cc1ccc(NC(=O)CSc2nnnn2-c2ccc(C(C)(C)C)cc2Cl)c(Cl)c1)OCC(=O)Nc1ccc(O)cc1 [Compound 4024]
[1]
  pIC50: 7.46

## CC(C)(C#Cc1ccc(NC(=O)CSc2nnnn2-c2cc(Br)ccc2Cl)c(Cl)c1)NC(=O)c1cc[n+]([O-])cc1 [Compound 4222]
[1]
  pIC50: 7.94

## O=C(CSc1nnnn1-c1ccc(C2CC2)cc1Cl)Nc1ccc(C#CCCN2CCNCC2)cc1Cl [Compound 4135]
[1]
  pIC50: 7.54

## CC(C)(N)C#Cc1ccc(NC(=O)CSc2nnnn2-c2cc(Br)ccc2Cl)c(Cl)c1 [Compound 4220]
[1]
  pIC50: 7.01

## CC(C)(C#Cc1ccc(NC(=O)CSc2nnnn2-c2ccc(C3CC3)cc2Cl)c(Cl)c1)C(=O)NS(=O)(=O)c1ccccc1 [Compound 4183]
[1]
  pIC50: 7.21

## CC(C)(C)c1ccc(-n2nnnc2SCC(=O)Nc2ccc(OCC(=O)NC3CCN(Cc4ccccc4)CC3)cc2Cl)c(Cl)c1 [Compound 5008]
Mutant reverse transcriptase
  pIC50: 6.06

## CC(C)(C#Cc1ccc(NC(=O)CSc2nnnn2-c2ccc(C3CC3)cc2Cl)c(Cl)c1)C(=O)NS(=O)(=O)C1CC1 [Compound 4184]
[1]
  pIC50: 7.52

## CC(C)(C)c1ccc(-n2nnnc2SCC(=O)Nc2ccc(NC(=O)Cc3cccc4occc34)cc2Cl)c(Cl)c1 [Compound 7034]
  IC50: 201 nM

## CC(C)(C#Cc1ccc(NC(=O)CSc2nnnn2-c2ccc(C3(C)CC3)cc2Cl)c(Cl)c1)C(=O)O [Compound 4173]
[1]
  pIC50: 7.29

## COC(=O)NS(=O)(=O)c1ccc(NC(=O)CSc2nnnn2-c2ccc(C3CC3)cc2Cl)c(Cl)c1 [Compound 3040]
Mutant reverse transcriptase
  pIC50: 6.63

## CN1CCN(C(=O)COC(C)(C)C#Cc2ccc(NC(=O)CSc3nnnn3-c3ccc(C(C)(C)C)cc3Cl)c(Cl)c2)CC1 [Compound 4023]
[1]
  pIC50: 7.19

## CN1CCN(C(=O)c2ccc(NC(=O)CSc3nnnn3-c3ccc(C(C)(C)C)cc3Cl)c(Cl)c2)CC1 [Compound 6004]
Mutant reverse transcriptase
  pIC50: 6.40

## Cc1ccc(-n2nccc2SCC(=O)Nc2ccc(-c3ccc(CC(=O)O)cc3)cc2Cl)c(Cl)c1 [Compound 1004]
Mutant reverse transcriptase
  pIC50: 6.38

## O=C(COc1ccc(NC(=O)CSc2nnnn2-c2ccc(C3CC3)cc2Cl)c(Cl)c1)NCCc1ccncc1 [Compound 5036]
Mutant reverse transcriptase
  pIC50: 6.57

## CC(C)(C#Cc1ccc(NC(=O)CSc2nnnn2-c2cc(C(C)(C)C)ccc2Cl)c(Cl)c1)NC(=O)CN1CCNCC1 [Compound 4202]
[1]
  pIC50: 6.97

## CC(C)(C#Cc1ccc(NC(=O)CSc2nnnn2-c2ccc(C3CC3)cc2Cl)c(Cl)c1F)OCCN1CCC(F)(F)C1 [Compound 4217]
[1]
  pIC50: 7.04

## CC(C)(C)c1ccc(-n2nnnc2SCC(=O)Nc2ccc(-c3ccc(OCCn4ccnc4)cc3)cc2Cl)c(Cl)c1 [Compound 2036]
Mutant reverse transcriptase
  pIC50: 7.17

## CN(C)S(=O)(=O)c1ccc(NC(=O)CSc2nnnn2-c2ccc(C(C)(C)C)cc2Cl)c(Cl)c1 [Compound 3025]
Mutant reverse transcriptase
  pIC50: 6.66

## O=C(CSc1nnnn1-c1ccc(C2CC2)cc1Cl)Nc1ccc(S(=O)(=O)N2CCC(C(=O)O)CC2)cc1Cl [Compound 3042]
Mutant reverse transcriptase
  pIC50: 6.41

## Cc1cc(-n2nnnc2SCC(=O)Nc2ccc(C#CC(C)(C)O)cc2Cl)c(Cl)c(C(F)(F)F)c1 [Compound 4031]
[1]
  pIC50: 6.58

## CC(C)(C(=O)O)c1ccc(-c2ccc(NC(=O)CSc3nnnn3-c3ccc(C4CC4)cc3Cl)c(Cl)c2)cc1 [Compound 2052]
Mutant reverse transcriptase
  pIC50: 7.72

## CC(C)(C#Cc1ccc(NC(=O)CSc2nnnn2-c2ccc(C3CC3)cc2Cl)c(Cl)c1)NC(=O)c1ccccc1 [Compound 4106]
[1]
  pIC50: 7.72

## CC(C)(O)C#Cc1ccc(NC(=O)CSc2nnnn2-c2ccc(C(C)(C)C)cc2Cl)c(Cl)c1 [Compound 4005]
[1]
  pIC50: 7.70

## CC(C)(C#Cc1ccc(NC(=O)CSc2nnnn2-c2ccc(C3CC3)cc2Cl)c(Cl)c1)NC(=O)CNc1cc[n+]([O-])cc1 [Compound 4193]
[1]
  pIC50: 7.54

## CC(C)(O)C#Cc1ccc(NC(=O)CSc2nnnn2-c2c(F)ccc(C(F)(F)F)c2Cl)c(Cl)c1 [Compound 4022]
[1]
  pIC50: 6.73

## CC(C)(C)c1ccc(-n2nnnc2SCC(=O)Nc2ccc(NC(=O)Nc3ccccc3)cc2Cl)c(Cl)c1 [Compound 7002]
  IC50: 187 nM

## COC(=O)Cc1ccc(-c2ccc(NC(=O)CSc3nnnn3-c3ccc(C)cc3Cl)c(Cl)c2)cc1 [Compound 2003]
Mutant reverse transcriptase
  pIC50: 7.28

## CC(C)(C)c1ccc(-n2nnnc2SCC(=O)Nc2ccc(NC(=O)Cc3cccc[n+]3[O-])cc2Cl)c(Cl)c1 [Compound 7047]
  IC50: 43.5 nM

## CC(C)(C)c1ccc(-n2nnnc2SCC(=O)Nc2ccc(-c3ccc(/C=C/C(=O)O)cc3)cc2Cl)c(Cl)c1 [Compound 2032]
Mutant reverse transcriptase
  pIC50: 8.18

## CC(C)(C)c1ccc(-n2nnnc2SCC(=O)Nc2ccc(OCC(=O)N3CCC(C(=O)O)CC3)cc2Cl)c(Cl)c1 [Compound 5028]
Mutant reverse transcriptase
  pIC50: 7.41

## Cc1cc(C(F)(F)F)cc(-n2nnnc2SCC(=O)Nc2ccc(C#CC(C)(C)O)cc2Cl)c1Cl [Compound 4030]
[1]
  pIC50: 7.68

## COC(=O)C1CCN(CCOc2ccc(NC(=O)CSc3nnnn3-c3ccc(C(C)(C)C)cc3Cl)c(Cl)c2)CC1 [Compound 3035]
Mutant reverse transcriptase
  pIC50: 6.45

## CC(C)(C#Cc1ccc(NC(=O)CSc2nnnn2-c2ccc(C3CC3)cc2Cl)c(Cl)c1)C(=O)NCC1CCCO1 (stereo not shown) [Compound 4146]
[1]
  pIC50: 7.43

## CN(C)CCCNC(=O)C(C)(C)C#Cc1ccc(NC(=O)CSc2nnnn2-c2ccc(C3CC3)cc2Cl)c(Cl)c1 [Compound 4145]
[1]
  pIC50: 7.32

## CC(C)(C)c1ccc(-n2nnnc2SCC(=O)Nc2ccc(C(=O)NN3CCOCC3)cc2Cl)c(Cl)c1 [Compound 6007]
Mutant reverse transcriptase
  pIC50: 7.52

## CCC(C#Cc1ccc(NC(=O)CSc2nnnn2-c2ccc(C3CC3)cc2Cl)c(Cl)c1)(CC)NC(=O)OC(C)(C)C [Compound 4066]
[1]
  pIC50: 6.14

## CC(C)(C#Cc1ccc(NC(=O)CSc2nnnn2-c2ccc(C3CC3)cc2Cl)c(Cl)c1)NC(=O)CCC(=O)O [Compound 4238]
[1]
  pIC50: 8.11

## CNS(=O)(=O)c1ccc(NC(=O)CSc2nnnn2-c2ccc(C(C)(C)C)cc2Cl)c(Cl)c1 [Compound 3021]
Mutant reverse transcriptase
  pIC50: 7.20

## CC(NC(=O)COC(C)(C)C#Cc1ccc(NC(=O)CSc2nnnn2-c2ccc(C(C)(C)C)cc2Cl)c(Cl)c1)C(=O)O (stereo not shown) [Compound 4053]
[1]
  pIC50: 7.60
